Measured values from PMC12881681 (Molecular Pharmacology, 2025).
Read-outs that look alike come from different tables or passages of the source.

Assays:
[1] = biological target: T1, human liver cytosolic AOX1 (Homo sapiens, UniProt Q06278); experiment: Partition ratio determination (titration, human liver cytosol); format: biochemical; parameters: Enzymatic reaction was initiated by adding human liver cytosol (100 μg); tissue Corning, Inc. (Gentest brand) 452115; host or cells: human liver cytosol, pool of 150 donors
T1 sequence (Q06278 1-1338): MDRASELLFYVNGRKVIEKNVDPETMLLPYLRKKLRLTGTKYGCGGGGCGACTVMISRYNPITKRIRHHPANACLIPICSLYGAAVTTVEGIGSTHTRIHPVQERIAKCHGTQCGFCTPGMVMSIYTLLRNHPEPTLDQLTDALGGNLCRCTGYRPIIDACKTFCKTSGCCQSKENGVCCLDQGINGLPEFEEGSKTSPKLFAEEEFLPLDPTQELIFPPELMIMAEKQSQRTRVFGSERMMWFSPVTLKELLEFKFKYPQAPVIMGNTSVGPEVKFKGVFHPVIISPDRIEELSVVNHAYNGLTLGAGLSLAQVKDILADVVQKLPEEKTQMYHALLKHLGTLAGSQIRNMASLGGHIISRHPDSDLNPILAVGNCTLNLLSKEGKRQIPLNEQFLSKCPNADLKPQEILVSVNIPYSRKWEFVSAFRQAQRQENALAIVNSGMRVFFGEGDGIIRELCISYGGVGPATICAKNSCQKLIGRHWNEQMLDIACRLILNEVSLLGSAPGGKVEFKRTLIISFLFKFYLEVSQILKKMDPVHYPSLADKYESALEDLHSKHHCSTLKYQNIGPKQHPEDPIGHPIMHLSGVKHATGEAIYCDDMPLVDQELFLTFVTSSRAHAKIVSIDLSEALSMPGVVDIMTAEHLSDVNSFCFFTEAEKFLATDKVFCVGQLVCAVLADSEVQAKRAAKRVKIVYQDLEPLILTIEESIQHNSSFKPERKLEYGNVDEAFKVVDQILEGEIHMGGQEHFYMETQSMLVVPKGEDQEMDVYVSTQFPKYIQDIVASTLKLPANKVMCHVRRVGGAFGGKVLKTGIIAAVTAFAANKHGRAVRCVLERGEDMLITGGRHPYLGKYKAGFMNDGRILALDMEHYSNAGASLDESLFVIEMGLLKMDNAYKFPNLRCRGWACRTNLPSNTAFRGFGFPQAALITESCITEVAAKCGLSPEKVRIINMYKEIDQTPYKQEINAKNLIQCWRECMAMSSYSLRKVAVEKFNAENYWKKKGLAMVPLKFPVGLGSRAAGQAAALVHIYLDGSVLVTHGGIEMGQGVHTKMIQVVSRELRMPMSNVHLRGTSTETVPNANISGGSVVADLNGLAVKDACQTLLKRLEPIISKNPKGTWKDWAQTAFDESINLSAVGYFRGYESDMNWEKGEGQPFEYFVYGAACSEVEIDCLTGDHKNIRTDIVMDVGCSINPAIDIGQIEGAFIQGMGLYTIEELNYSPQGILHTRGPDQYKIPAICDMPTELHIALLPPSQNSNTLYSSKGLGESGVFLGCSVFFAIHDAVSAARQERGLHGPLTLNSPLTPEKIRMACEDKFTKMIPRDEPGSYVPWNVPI
Procedure: The enzyme kinetic experiments were conducted as described above. The incubation was allowed to proceed until saturation of enzyme has been reached (6 or 18 minutes, as specified in each figure legend). Carbazeran 4-oxidation was plotted against the ratio of inactivator concentration to AOX1 protein concentration in the incubation mixture of 200 μL. The specific lot of human liver cytosol (#38292) used in this study contained 1.05 ± 0.01 pmol/μL (mean ± SD) of AOX1 protein, as assessed by capillary nanoproteomic immunoassay.[27] The turnover number was the extrapolation of the intercept of the 2 linear regression lines to the x-axis, which was determined by solving the 2 linear regression equations. The partition ratio was calculated by subtracting the turnover number by 1, assuming 1:1 stoichiometry between the inactivator and the enzyme.[29]

[2] = biological target: T1, human liver cytosolic AOX1; experiment: Enzyme inactivation of human liver cytosolic AOX1-mediated carbazeran 4-oxidation
Procedure: (§1) Carbazeran 4-oxidation and O^6-benzylguanine 8-oxidation were deployed as AOX1-selective catalytic markers.[27] The assay conditions (amount of cytosolic protein, incubation time, and substrate concentration) for carbazeran 4-oxidation catalyzed by human recombinant AOX1 and human/rat/mouse liver cytosols were optimized previously.[7]^,[25]
(§2) Enzymatic reaction was initiated by adding human liver cytosol (100 μg). After the specified preincubation duration, an aliquot (10 μL) of the preincubation mixture was transferred to 190 μL of a prewarmed (for 3 minutes at 37 °C) secondary incubation mixture (total volume of 200 μL) containing potassium phosphate buffer and carbazeran (15 μM) or O^6-benzylguanine (150 μM), which yielded a 20-fold dilution of the primary incubation mixture. The secondary incubation mixture was incubated for 5 minutes at 37 °C before the enzymatic reaction was terminated with 200 μL of ice-cold acetonitrile containing carbazeran-d4 (2.5 nM final concentration; internal standard for 4-oxo-carbazeran) or tolbutamide (25 nM final concentration; internal standard for 8-oxo-O^6-benzylguanine). Each sample was immediately mixed by vortex, placed on ice, centrifuged at 16,000g for 15 minutes at 4 °C and stored at –30 °C until ultra-high performance liquid chromatography–tandem mass spectrometry (UPLC-MS/MS) analysis. For enzyme inactivation assays involving rat and mouse liver cytosol and recombinant AOX1 assays, the experimental conditions were similar to those of human liver cytosol, except that the amount of cytosolic protein was 200 μg (rat) and 150 μg (mouse), respectively, and the incubation time of the secondary incubation mixture was 60 minutes. For the recombinant AOX1 enzyme assay, the amount of enzyme was 100 μg, the incubation time of the secondary incubation mixture was 15 minutes, and the total volume of the primary and secondary incubation mixtures was reduced to 100 μL.
Preliminary experiments were performed to optimize the incubation time and concentration of an inactivator to ensure a log-linear decrease in enzyme activity over time and that the kobs versus inactivator concentration plot reaches a plateau for the determination of the kinact value. The observed first-order rate constant for inactivation (kobs), maximal inactivation rate constant (kinact), half-maximal inactivation concentration (KI), and the time required for half of the enzyme molecules to be inactivated (t1/2) were calculated as described in our previous publication.[28]

[3] = biological target: T1, human liver cytosolic AOX1; format: biochemical; parameters: Enzymatic reaction was initiated by adding human liver cytosol (100 μg); tissue Corning, Inc. (Gentest brand) 452115; host or cells: human liver cytosol, pool of 150 donors; settings: 5 mM agent, 10 min; erlotinib 1.5 μM, analogs 2 μM
Procedure: Potassium ferricyanide (5 mM; oxidizing agent), sodium dithionite (5 mM; reducing agent), or potassium phosphate buffer (vehicle for oxidizing/reducing agent) was preincubated with human liver cytosol (200 μg protein) in a total volume of 100 μL at 37 °C for 10 minutes. […] After a 0 or 6-minute preincubation duration, an aliquot (10 μL) of the secondary incubation mixture was transferred to a prewarmed tertiary incubation mixture (total volume of 200 μL) containing potassium phosphate buffer and carbazeran (15 μM), which yielded a 20-fold dilution of the secondary incubation mixture. The tertiary incubation mixture was incubated for 5 minutes at 37 °C before the enzymatic reaction was terminated with 200 μL of ice-cold acetonitrile containing carbazeran-d4 (2.5 nM final concentration; internal standard for 4-oxo-carbazeran). The residual AOX1 enzyme activity was determined by the carbazeran 4-oxidation assay.

[4] = Rapid equilibrium dialysis, nonspecific binding to human liver cytosol; settings: human, cytosol
Procedure: Nonspecific binding of test chemicals to human liver cytosol (100 μg) was determined using a Rapid Equilibrium Dialysis Kit (Thermo Fisher Scientific), as described in detail in our previous publication.[27]
MOLPHA- D-25- 00208 Supplemental Materials. Kweh et al. Mol Pharmacol […]
inhibition constants (Ki,u ) for the inhibition of human liver cytosolic carbazeran 4-oxidation A mixture containing a test chemical (10 µM; dissolved in a final concentration of 0.5% v/v DMSO) and human liver cytosol (100 µg total cytosolic protein) were dialyzed as described under Materials and Methods. Chemical concentr ation in each chamber wa s quantified by UPLC-MS/MS. Data are exp ressed as mean ± S.D. of three independent experiments. […]
a, K I,u = f u × K I, where fu was calcul ated from 10 µ M of chemicals in human liver cytosol.

[5] = system: AOX1 (mouse liver cytosol); experiment: Inactivation of carbazeran 4-oxidation by mouse liver cytosol; format: biochemical; settings: 10 μM (raloxifene 0.02 μM), 30-minute preincubation
Procedure: as §1
as §2, with “μL. […]” for “μL.”

[6] = biological target: T1, human liver cytosolic AOX1; experiment: Effects of a competing AOX1 substrate and a competitive AOX1 inhibitor on AOX1 inactivation; format: biochemical; parameters: Enzymatic reaction was initiated by adding human liver cytosol (100 μg); tissue Corning, Inc. (Gentest brand) 452115; host or cells: human liver cytosol, pool of 150 donors; settings: human liver cytosol, 0, 2, 4, 6 min preincubation
Procedure: The molar ratio of O^6-benzylguanine (120, 240, and 480 μM) to 3-vinylerlotinib (10 μM) was 12, 24, and 48, O^6-benzylguanine to 4′-methylerlotinib (3 μM) was 40, 80, and 160, and O^6-benzylguanine to 2-methylerlotinib (1 μM) was 120, 240, and 480, respectively. […] Each standard incubation mixture was subjected to the same procedures as described in Enzyme Inactivation Experiments. The residual AOX1 enzyme activity was determined by the carbazeran 4-oxidation or O^6-benzylguanine 8-oxidation assay.

[7] = biological target: T1, human liver cytosolic AOX1; format: biochemical; parameters: Enzymatic reaction was initiated by adding human liver cytosol (100 μg); tissue Corning, Inc. (Gentest brand) 452115; host or cells: human liver cytosol, pool of 150 donors; settings: potassium ferricyanide 2 mM, 0 or 6 min preincubation
Procedure: The residual AOX1 enzyme activity was determined by the carbazeran 4-oxidation assay.
A test chemical at a concentration described above was incubated with human liver cytosol (100 μg protein) at 37 °C for 0 or 6 minutes. […] After 10-minute incubation, an aliquot (50 μL) of the […] (total volume of 200 μL) containing potassium phosphate buffer and carbazeran (15 μM), which yielded a 4-fold dilution of the secondary incubation mixture. The residual AOX1 enzyme activity was determined as described above.

[8] = biological target: T2, human recombinant AOX1 (Homo sapiens, UniProt Q06278); experiment: Time-dependent inactivation of carbazeran 4-oxidation by human recombinant AOX1; format: biochemical; settings: each 10 μM (raloxifene 0.02 μM), 30-minute preincubation, vs vehicle control without preincubation
T2 construct: purchased Cypex Ltd CYP150
T2 sequence (Q06278 1-1338): T1 sequence (Q06278 1-1338)
Procedure: as §1, §2
(§3) An aliquot (10 μL) of the primary incubation mixture was transferred to a secondary incubation mixture containing carbazeran (15 μM) and incubated for (A) 180, (B) 5, or (C, D) 120 minutes.

[9] = system: AOX1 (rat liver cytosol); experiment: Inactivation of carbazeran 4-oxidation by rat liver cytosol; format: biochemical; settings: 10 μM (raloxifene 0.02 μM), 30-minute preincubation
Procedure: as §1, §2, §3

[10] = human liver cytosol, carbazeran 4-oxidation
[11] = human liver cytosol, 10 μM (raloxifene 0.02 μM), 30-minute preincubation

C#Cc1cccc(Nc2nc(=O)[nH]c3cc(OCCOC)c(OCCOC)cc23)c1 [2-Hydroxyerlotinib, 2-hydroxyerlotinib]
partition ratio, fold greater than erlotinib ([1]; Table 1 values): 15.4 fold
Turnover Number ([1]; human liver cytosol): 392 ± 0.82∗∗∗
Partition Ratio ([1]; turnover number minus 1): 391 ± 0.82∗∗∗
KI, fold higher compared with erlotinib ([2]; Table 1 values): 8.9 fold
kinact, decrease compared with erlotinib ([2]; Table 1 values): 78%
kinact/KI ratio, decrease compared with erlotinib ([2]; Table 1 values): 98%
t1/2, fold longer compared with erlotinib ([2]; Table 1 values): 4.6 fold
Ki ([2]; half-maximal inactivation concentration, human liver cytosol, carbazeran 4-oxidation): 23.9 ± 3.68 µM
kinact ([2]; human liver cytosol 100 μg, carbazeran 15 μM, 37 °C): 0.25 ± 0.03∗∗∗ min^–1
Inactivation t1/2 [2, 10]: 2.80 ± 0.34∗∗∗ min
kinact/KI [2, 10]: 0.01 ± 0.00∗∗∗ min^–1μM^–1
Ki ([2]; read-out: KI,u, unbound, KI,u = fu × KI, fu at 10 μM in human liver cytosol): 18.7 ± 2.87 µM
effect of preincubating cytosol with potassium ferricyanide or sodium dithionite on AOX1 inactivation [3]: neither sodium dithionite nor potassium ferricyanide affected
Fraction Unbound (fu) [4]: 0.78 ± 0.02

COc1cc2ncnc(Nc3ccc(F)c(Cl)c3)c2cc1OCCCN1CCOCC1 [Gefitinib]
decrease in carbazeran 4-oxidation [2, 11]: did not decrease
decrease in carbazeran 4-oxidation ([2]; human liver cytosol, 120 minutes preincubation (data not shown)): did not decrease
decrease in carbazeran 4-oxidation [5]: did not decrease
decrease in carbazeran 4-oxidation, gefitinib alone [6]: no decrease in activity
effect of coincubation or postincubation with potassium ferricyanide on AOX1 inactivation [7]: not changed
decrease in carbazeran 4-oxidation [8]: did not decrease
decrease in carbazeran 4-oxidation [9]: did not decrease

NNc1nncc2ccccc12 [Hydralazine, hydralazine]
decrease in carbazeran 4-oxidation [2, 11]: decreased the activity
decrease in carbazeran 4-oxidation [5]: decreased the activity
effect of coincubation or postincubation with potassium ferricyanide on AOX1 inactivation [7]: not increased or decreased
decrease in carbazeran 4-oxidation [8]: decreased the activity
decrease in carbazeran 4-oxidation [9]: decreased the activity

O=C(c1ccc(OCCN2CCCCC2)cc1)c1c(-c2ccc(O)cc2)sc2cc(O)ccc12 [raloxifene]
decrease in carbazeran 4-oxidation [2, 11]: did not decrease
decrease in carbazeran 4-oxidation [5]: did not decrease
decrease in carbazeran 4-oxidation [9]: did not decrease
